Drawing on ChEMBL document CHEMBL1201862, “PubChem BioAssay data set” (2004), this text covers AC50, EC50 and IC50 for 15 compounds.

Active and inactive are the calls of the source. Where only a bound is given, the exact number is not on record here.

Assay [1] is described as follows: bead-based luminescence quenchers, dual-tagged ARNT – biochemical, AlphaScreen, cherry-pick, artefact control for ARNT-TACC3 interaction inhibitor project, dose response (AID 651705).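 Note: AlphaScreen bead proximity signal that flags compounds interfering with the detection technology; potency reflects signal decrease which marks the compound as an assay artifact.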 In kind it is functional. In general terms: In Alpha technology, singlet oxygen from a donor bead excites a nearby acceptor bead.
The target in assay [2] is T1, Adenosylmethionine-8-amino-7-oxononanoate aminotransferase (Mycobacterium tuberculosis, UniProt P9WQ81).
T1 sequence (P9WQ81 whole entry): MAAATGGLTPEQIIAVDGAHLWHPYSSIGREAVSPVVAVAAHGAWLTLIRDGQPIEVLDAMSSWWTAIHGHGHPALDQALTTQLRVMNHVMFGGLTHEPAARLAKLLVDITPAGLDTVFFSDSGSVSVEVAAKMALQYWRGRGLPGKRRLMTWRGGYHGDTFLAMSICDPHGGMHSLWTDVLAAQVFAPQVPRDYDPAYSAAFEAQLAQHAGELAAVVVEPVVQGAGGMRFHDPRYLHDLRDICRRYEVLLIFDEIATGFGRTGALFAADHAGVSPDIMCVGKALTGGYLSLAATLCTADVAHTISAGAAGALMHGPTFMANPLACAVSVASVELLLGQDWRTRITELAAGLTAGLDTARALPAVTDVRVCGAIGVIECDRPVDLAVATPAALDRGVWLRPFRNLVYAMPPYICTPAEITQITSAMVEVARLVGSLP
The assay is described as follows: Mycobacterium tuberculosis BioA enzyme inhibitor Measured in Biochemical System Using Plate Reader - 2163-02_Inhibitor_Dose_CherryPick_Activity. The assay is classed as functional, Mycobacterium tuberculosis UT205.

The target of a further assay is Cytochrome P450 2C19 (Homo sapiens, UniProt P33261). The assay is described as follows: Cytochrome panel assay with activity outcomes. Panel member name: p450-cyp2c19 Compounds with AC50 equal or less than 10 uM are considered active. The note with it: read-out: AC50. The assay is classed as functional.
In assay [3] the target is T2, Mitochondrial peptide methionine sulfoxide reductase (Bos taurus, UniProt P54149).
T2 sequence (P54149 whole entry): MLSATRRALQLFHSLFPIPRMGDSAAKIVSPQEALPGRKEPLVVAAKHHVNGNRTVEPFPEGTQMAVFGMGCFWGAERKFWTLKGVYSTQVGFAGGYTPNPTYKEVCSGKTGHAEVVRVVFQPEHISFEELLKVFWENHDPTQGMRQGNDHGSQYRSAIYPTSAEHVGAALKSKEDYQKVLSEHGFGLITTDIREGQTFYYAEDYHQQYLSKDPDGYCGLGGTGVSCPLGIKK
Put plainly: Absorbance-based biochemical high throughput dose response assay for activators of Methionine sulfoxide reductase A (MsrA). In kind it is functional.

Another assay has as its target Cytochrome P450 3A4 (Homo sapiens, UniProt P08684).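 Note: CYP3A4 tested as one member of a cytochrome P450 panel screen.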
For another assay, the target named is Cytochrome P450 2C9 (Homo sapiens, UniProt P11712).
In assay [4] the target is SWI/SNF-related matrix-associated actin-dependent regulator of chromatin subfamily A member 2 (Homo sapiens, UniProt P51531). Put plainly: Luminescence-based cell-based high throughput dose response assay to identify activators of the function of SWI/SNF related, matrix associated, actin dependent regulator of chromatin, subfamily a, member 2 (SMARCA2, BRM). In kind it is functional.

The nature of assay [5]: Counterscreen for activators of the function of SWI/SNF related, matrix associated, actin dependent regulator of chromatin, subfamily a, member 2 (SMARCA2, BRM): Luminescence-based cell-based high throughput dose response assay to identify non-selective compounds using the VP16 reporter assay. The assay is classed as functional. On the technique in general: Counterscreens check selectivity or assay interference.

The next assay concerns the target T3, Interleukin-8 (Homo sapiens, UniProt P10145).
T3 sequence (P10145 whole entry): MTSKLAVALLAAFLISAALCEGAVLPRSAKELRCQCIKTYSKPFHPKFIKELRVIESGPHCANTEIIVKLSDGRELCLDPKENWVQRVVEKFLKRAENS
The assay is described as follows: Dose Response confirmation of uHTS small molecule hits for cystic fibrosis induced NFkb Inhibitors in a PAF-induced IL8 counterscreen. The assay is classed as functional. The note with it: read-out: IC50_Mean.

Assay [6] addresses 5-hydroxytryptamine receptor 2A (Mus musculus, UniProt P35363). The assay is classed as functional, cell-based.
A further assay has as its target Mu-type opioid receptor (Homo sapiens, UniProt P35372). In kind it is functional, cell-based.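 Note: U2OS cells with beta-arrestin recruitment to OPRM1 by beta-gal complementation.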
Assay [7] concerns the target Glucose-6-phosphate 1-dehydrogenase (Homo sapiens, UniProt P11413). Put plainly: inhibition of Homo sapiens G6PD, dose series – biochemical, fluorescence, selectivity assay for P. falciparum G6PD inhibitor project, dose response (AID 504792). The assay is classed as functional.
Assay [8] has as its target DNA dC->dU-editing enzyme APOBEC-3G (Homo sapiens, UniProt Q9HC16). Put plainly: Dose Response confirmation of small molecule APOBEC3G DNA Deaminase Inhibitors via a fluorescence-based single-stranded DNA deaminase assay. [Related pubchem assays (depositor defined):AID493012, AID493028]. In kind it is functional.
The next assay addresses Large T antigen (Simian virus 40, UniProt P03070). The assay is classed as functional, Betapolyomavirus macacae.
Assay [9] has as its target T4, Sentrin-specific protease 8 (Homo sapiens, UniProt Q96LD8).
T4 sequence (Q96LD8 whole entry): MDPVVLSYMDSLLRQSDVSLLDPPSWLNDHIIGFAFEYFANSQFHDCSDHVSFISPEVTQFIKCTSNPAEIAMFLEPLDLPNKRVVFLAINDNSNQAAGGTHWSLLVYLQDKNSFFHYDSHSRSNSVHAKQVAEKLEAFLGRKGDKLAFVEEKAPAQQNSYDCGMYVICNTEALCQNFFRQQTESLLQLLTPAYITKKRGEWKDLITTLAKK
In kind it is functional.

Assay [10] is described as follows: viability of PTEN-deleted HCT116 cells – cell-based, HCT116 PTEN knockout, dose response (AID 1047).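 Note: HCT116 colon tumor cells with PTEN knocked out; cells exposed to compound for 60 hours before readout; potency for loss of cell viability measured by luminescence.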 In kind it is functional.
Assay [11] in a line: viability of HCT116 lacking mutant beta-catenin – cell-based, human colon tumor, dose response (AID 1045).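 Note: HCT116 colon tumor cells with beta catenin knocked out; cells exposed to compound for 60 hours.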 The assay is classed as functional.
Assay [12] has as its target Heat shock protein HSP 90-alpha (Homo sapiens, UniProt P07900). The assay is classed as functional, organism-based.
Assay [13] has as its target T4, Sentrin-specific protease 8. In kind it is functional. This is another data set of the same source.
The nature of a further assay: cells. The assay is classed as functional.

Mu-type opioid receptor, sequence (P35372 whole entry): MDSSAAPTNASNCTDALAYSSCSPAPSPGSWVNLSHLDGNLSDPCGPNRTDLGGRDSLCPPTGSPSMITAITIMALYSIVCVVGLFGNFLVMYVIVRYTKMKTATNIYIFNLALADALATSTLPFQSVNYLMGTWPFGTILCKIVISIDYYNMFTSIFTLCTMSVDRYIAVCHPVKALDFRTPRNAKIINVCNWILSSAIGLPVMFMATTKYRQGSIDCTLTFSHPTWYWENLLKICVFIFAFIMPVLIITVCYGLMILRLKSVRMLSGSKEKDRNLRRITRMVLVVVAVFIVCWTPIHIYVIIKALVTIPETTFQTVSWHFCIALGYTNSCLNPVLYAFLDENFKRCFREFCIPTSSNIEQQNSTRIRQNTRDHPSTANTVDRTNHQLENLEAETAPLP
SWI/SNF-related matrix-associated actin-dependent regulator of chromatin subfamily A member 2, sequence (P51531 whole entry): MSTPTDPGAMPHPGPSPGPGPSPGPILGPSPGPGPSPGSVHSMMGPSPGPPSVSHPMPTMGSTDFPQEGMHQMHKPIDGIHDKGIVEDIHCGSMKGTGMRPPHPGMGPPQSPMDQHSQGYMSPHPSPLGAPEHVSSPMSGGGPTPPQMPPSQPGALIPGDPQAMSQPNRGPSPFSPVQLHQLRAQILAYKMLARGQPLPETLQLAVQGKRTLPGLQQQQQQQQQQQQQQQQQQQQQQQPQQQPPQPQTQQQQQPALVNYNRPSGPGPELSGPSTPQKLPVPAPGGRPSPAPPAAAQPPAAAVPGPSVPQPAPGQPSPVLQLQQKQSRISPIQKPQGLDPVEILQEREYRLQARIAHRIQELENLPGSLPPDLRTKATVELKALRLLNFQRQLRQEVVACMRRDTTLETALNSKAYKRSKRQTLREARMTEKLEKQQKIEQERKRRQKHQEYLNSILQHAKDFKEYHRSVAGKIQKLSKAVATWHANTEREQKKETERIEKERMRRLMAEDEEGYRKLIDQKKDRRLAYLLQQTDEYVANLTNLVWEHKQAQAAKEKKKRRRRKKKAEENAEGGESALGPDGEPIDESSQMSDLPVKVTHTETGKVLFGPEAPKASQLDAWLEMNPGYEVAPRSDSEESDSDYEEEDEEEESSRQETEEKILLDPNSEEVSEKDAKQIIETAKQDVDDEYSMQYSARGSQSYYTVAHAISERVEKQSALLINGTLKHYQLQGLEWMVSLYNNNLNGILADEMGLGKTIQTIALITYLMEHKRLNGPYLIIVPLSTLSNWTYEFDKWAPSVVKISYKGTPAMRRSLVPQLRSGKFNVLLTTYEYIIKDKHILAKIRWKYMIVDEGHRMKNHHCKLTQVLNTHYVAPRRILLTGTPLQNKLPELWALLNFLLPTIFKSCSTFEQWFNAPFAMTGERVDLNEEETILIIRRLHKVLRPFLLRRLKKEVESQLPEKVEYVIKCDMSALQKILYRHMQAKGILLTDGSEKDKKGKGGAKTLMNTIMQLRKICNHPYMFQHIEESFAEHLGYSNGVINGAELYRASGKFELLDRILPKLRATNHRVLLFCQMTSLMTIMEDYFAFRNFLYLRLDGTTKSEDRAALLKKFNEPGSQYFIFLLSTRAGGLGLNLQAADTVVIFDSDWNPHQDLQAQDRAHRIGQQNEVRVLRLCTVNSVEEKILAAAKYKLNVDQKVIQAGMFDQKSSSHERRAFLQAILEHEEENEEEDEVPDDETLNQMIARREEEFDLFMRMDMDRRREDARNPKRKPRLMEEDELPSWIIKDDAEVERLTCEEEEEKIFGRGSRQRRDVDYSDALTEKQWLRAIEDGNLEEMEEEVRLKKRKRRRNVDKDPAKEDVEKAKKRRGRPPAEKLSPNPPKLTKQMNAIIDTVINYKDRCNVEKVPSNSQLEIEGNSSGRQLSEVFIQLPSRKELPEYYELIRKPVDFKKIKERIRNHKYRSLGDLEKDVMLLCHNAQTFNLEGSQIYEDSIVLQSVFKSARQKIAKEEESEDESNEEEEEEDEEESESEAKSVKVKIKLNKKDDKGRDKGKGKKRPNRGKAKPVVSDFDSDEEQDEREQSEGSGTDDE
5-hydroxytryptamine receptor 2A, sequence (P35363 whole entry): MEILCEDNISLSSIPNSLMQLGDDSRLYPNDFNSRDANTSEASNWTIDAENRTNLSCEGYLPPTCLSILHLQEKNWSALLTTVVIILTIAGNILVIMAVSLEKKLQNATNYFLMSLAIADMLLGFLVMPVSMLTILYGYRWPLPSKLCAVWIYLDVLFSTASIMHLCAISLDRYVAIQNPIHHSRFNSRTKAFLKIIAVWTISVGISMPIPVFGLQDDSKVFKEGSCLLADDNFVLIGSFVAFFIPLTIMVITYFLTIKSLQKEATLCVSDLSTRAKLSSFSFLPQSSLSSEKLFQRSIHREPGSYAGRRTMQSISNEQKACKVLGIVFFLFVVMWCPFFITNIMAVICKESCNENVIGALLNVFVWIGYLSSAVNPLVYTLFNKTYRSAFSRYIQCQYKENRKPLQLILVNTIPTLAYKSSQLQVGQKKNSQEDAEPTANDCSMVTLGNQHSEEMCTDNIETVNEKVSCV
Cytochrome P450 3A4, sequence (P08684 whole entry): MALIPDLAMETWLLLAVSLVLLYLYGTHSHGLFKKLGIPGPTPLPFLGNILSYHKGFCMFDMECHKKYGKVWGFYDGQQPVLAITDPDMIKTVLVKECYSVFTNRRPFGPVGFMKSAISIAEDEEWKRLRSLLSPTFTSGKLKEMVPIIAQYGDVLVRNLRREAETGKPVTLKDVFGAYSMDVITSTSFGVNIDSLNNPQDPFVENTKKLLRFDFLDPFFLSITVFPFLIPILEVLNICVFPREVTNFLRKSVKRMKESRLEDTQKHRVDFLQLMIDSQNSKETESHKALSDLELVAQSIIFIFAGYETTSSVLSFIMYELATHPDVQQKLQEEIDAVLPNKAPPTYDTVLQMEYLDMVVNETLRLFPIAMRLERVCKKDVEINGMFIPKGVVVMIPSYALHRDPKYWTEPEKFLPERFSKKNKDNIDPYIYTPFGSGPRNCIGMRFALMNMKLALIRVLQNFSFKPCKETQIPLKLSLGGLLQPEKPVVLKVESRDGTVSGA
Large T antigen, sequence (P03070 whole entry): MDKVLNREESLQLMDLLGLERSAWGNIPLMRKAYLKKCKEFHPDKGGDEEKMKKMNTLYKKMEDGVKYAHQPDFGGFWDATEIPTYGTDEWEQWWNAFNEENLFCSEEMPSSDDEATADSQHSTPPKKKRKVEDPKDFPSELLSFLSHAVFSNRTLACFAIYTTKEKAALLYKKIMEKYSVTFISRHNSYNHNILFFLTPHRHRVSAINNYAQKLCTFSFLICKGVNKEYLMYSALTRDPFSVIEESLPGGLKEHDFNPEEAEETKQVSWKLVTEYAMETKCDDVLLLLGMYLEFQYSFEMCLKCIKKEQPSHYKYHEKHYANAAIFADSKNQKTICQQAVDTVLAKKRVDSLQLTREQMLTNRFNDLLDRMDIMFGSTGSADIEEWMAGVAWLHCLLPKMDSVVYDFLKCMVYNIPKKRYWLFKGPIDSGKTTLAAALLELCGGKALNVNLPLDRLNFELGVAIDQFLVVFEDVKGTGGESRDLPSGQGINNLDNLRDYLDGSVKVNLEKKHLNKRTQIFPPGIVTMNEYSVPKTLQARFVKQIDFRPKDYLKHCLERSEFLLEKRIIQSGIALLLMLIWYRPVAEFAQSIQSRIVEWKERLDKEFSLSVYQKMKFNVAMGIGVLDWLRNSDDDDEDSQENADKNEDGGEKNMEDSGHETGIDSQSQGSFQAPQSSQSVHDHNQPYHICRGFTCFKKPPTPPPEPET
Cytochrome P450 2C19, sequence (P33261 whole entry): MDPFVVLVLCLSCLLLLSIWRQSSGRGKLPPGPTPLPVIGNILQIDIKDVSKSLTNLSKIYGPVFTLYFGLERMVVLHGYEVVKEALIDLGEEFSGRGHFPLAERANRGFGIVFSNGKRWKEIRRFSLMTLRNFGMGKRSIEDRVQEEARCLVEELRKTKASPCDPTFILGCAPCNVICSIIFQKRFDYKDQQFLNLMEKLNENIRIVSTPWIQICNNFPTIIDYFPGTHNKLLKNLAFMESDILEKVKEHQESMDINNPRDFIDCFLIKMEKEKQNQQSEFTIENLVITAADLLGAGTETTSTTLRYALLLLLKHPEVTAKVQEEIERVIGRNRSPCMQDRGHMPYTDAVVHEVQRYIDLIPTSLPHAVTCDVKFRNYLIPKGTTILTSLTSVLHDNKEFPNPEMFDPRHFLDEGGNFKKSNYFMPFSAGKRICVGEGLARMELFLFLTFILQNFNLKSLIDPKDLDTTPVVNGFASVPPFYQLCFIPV
Cytochrome P450 2C9, sequence (P11712 whole entry): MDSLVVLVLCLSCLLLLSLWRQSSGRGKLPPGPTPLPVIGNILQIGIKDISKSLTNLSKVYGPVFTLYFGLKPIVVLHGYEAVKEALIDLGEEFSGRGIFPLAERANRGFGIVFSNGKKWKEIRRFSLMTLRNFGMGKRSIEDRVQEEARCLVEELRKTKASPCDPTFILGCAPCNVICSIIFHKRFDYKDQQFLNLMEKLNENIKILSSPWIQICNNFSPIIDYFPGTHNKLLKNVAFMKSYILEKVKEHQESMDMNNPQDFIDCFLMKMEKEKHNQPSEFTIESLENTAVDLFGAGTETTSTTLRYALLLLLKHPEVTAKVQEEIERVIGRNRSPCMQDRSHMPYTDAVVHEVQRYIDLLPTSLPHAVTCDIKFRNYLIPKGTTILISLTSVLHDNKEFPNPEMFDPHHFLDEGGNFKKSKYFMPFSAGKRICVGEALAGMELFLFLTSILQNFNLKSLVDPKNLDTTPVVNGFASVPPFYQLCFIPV
DNA dC->dU-editing enzyme APOBEC-3G, sequence (Q9HC16 whole entry): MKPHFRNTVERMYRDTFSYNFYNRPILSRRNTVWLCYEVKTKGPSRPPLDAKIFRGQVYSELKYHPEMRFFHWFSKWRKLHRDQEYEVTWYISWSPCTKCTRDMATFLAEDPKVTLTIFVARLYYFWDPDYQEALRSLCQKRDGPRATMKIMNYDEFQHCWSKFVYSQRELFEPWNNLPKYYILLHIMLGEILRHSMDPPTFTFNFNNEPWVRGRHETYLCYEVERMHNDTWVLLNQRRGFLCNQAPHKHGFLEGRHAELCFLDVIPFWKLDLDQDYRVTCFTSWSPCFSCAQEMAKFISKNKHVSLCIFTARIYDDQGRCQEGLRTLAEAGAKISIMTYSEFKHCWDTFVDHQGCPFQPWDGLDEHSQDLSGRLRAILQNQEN

As a reminder, the AC50 is the concentration at which the activity in the assay is half-maximal. On to `CCOc1ccc(C(=O)CCNC(Cc2c[nH]cn2)C(=O)O)cc1` (stereo not given), for which the AC50 in assay [1] was 124 µM (active).
Regarding `CC(=O)c1ccc(C(=O)N2CCCC(CO)(Cc3ccccc3C)C2)s1` (stereo not given), the AC50 in assay [2] was 4.14 µM (active).
One may read the EC50 as the concentration at which the effect is half-maximal. In the case of `Cc1ccc(-c2cc[nH]c(=S)n2)cc1`, the AC50 was 14.1 µM (inconclusive) at Cytochrome P450 2C19, 14.1 µM (inconclusive) at Cytochrome P450 3A4 and 10 µM (inconclusive) on Cytochrome P450 2C9. Further, the EC50 in assay [3] was > 104 µM (inactive).
`CC1CCCN(c2ccc(C(=O)Nc3cccnc3)cc2[N+](=O)[O-])C1` (stereo not given): the AC50 in assay [2] is 1.11 µM (active).
Consider `O=C(c1cc2ccccc2oc1=O)N1CCOCC1`, for which the EC50 in assay [4] and in assay [5] was > 91.2 µM (inactive) in each case.
Turning to `CCn1c2ccccc2c2cc(/C=N/O)ccc21`, the IC50 on Interleukin-8 is 7.06 µM (active).
As to `COc1ccc(C2/C=C\CN(C(=O)C3CCCC3)CC(=O)N2Cc2ccc(F)cc2)cc1` (stereo not given), the values for the EC50 (in assay [6]; on Mu-type opioid receptor) were 76.1 µM (inactive) and 92.5 µM (inactive), respectively.
`OCc1ccccc1SSc1ccccc1CO`: the IC50 in [7] is > 80 µM (inactive); in assay [8], 12.3 µM (active); at Large T antigen it was 11.4 µM (active). Also, the EC50 in assay [3] was > 104 µM (inactive).
Regarding `CCNC(=O)C1(C)CCCN(Cc2ccc(-c3ccccc3)o2)C1` (stereo not given), the IC50 at Interleukin-8 is > 79 µM (inactive).
As to `Cc1c(Cl)cccc1/N=C/c1ccc([N+](=O)[O-])s1`, the IC50 is 5.17 µM (active) in assay [9] and 3.66 µM (active) in [13]. Also, the results for the EC50 in [10] and in [11] were 26.5 µM (active) and 40.3 µM (active), respectively. Besides, the AC50 in assay [12] is 7.37 µM (active).
As for `O=C(COC(=O)c1cccc(O)c1)c1ccccc1`, the EC50 in assay [4] and in assay [5] was > 91.1 µM (inactive) in each case.
For the compound `COc1ccccc1CN1CCN(C(=O)c2ccco2)CC1`, the figures for the EC50 (in assay [6]; at Mu-type opioid receptor) were 1.99 µM (active) and 92.5 µM (inactive), respectively.
`CC(=O)N1CC[C@@H]2[C@@H](CO)N(C)c3ccc(-c4ccccc4)cc3[C@@H]21`: the AC50 in assay [2] is 8.17 µM (active).
`Fc1ccc(-c2ccc(CNCc3ccccn3)o2)cc1Cl`: the IC50 in “cells” is 4.34 µM (active). For the same compound, the AC50 in [1] was 88.6 µM (active).
`Cc1ccc(NC(=O)CNCc2ccccn2)cc1S(=O)(=O)N(C)C`: in assay [1], the AC50 is 127 µM (active).
